{
  "source": "patent US20030012825A1",
  "about": "“Metallized molecule therapies” (priority 2000, published 2003)",
  "origin": "cited, not measured here",
  "key": {"[1]": {"conditions": "in vivo"}, "[2]": {"tested_on": "Maximal Electroshock-induced seizure", "conditions": "subcutaneously"}, "[3]": {"tested_on": "Metrazol-induced seizure", "conditions": "subcutaneously"}, "[4]": {"tested_on": "flow-mediated vasodilation", "conditions": "in vivo"}, "[5]": {"tested_on": "HIV"}, "[6]": {"conditions": "in vivo", "remark": "listed apart in the source"}},
  "data": [
    {"smiles": "COC1=C(OC)C(=O)C(C/C=C(\\C)CC/C=C(\\C)CC/C=C(\\C)CC/C=C(\\C)CC/C=C(\\C)CC/C=C(\\C)CC/C=C(\\C)CC/C=C(\\C)CC/C=C(\\C)CCC=C(C)C)=C(C)C1=O", "note": "[Coenzyme Q10]", "values": [
      {"measurement": "EEG brain activity", "setting": "[1]", "value": "lowering of EEG"}
    ]},
    {"smiles": "O=C(O)c1ccccc1[O-].O=C(O)c1ccccc1[O-].[Cu+2]", "note": "[Cu(II) (salicylate) 2]", "values": [
      {"measurement": "dose at which anticonvulsant activity is initiated, preventing the Maximal Electroshock-induced seizure", "setting": "[2]", "value": "600 milligrams per kilogram of bodyweight"},
      {"measurement": "dose at which anticonvulsant activity is initiated, preventing the Metrazol-induced seizure", "setting": "[3]", "value": "100 milligrams per kilogram of bodyweight"}
    ]},
    {"smiles": "[Cl][Cu][Cl]", "note": "[copper chloride]", "values": [
      {"measurement": "effect on flow-mediated vasodilation", "setting": "[4]", "value": "improve flow-mediated vasodilation"}
    ]},
    {"smiles": "[Cu+]", "note": "[copper ions]", "values": [
      {"measurement": "effect on intracellular HIV replication", "setting": "[5]", "value": "inhibit intracellular HIV replication"}
    ]},
    {"smiles": "N[C@@H](Cc1ccc(O)cc1)C(=O)O", "note": "[tyrosine]", "values": [
      {"measurement": "ability to pass the blood-brain barrier", "setting": "[6]", "value": "unique ability of passing the blood-brain barrier"}
    ]}
  ]
}
